Measurements taken from patent US20060293307A1, “Oxazolidinone derivatives as antimicrobials” (priority 2002, published 2006).
≈ marks a conversion by molar mass, not a printed value.

Experiments:
[1] = system: M. intracellulare ATCC 13950; experiment: MIC against MAC strains, agar dilution; assay type: cell-based; details: Mycobacterium intracellulare, ATCC13950; S. No. 06 Mi-1, M. intracellulare ATCC 13950; Middle Brook 7H10 + OADC, 37° C., 14-21 days; read-out: MIC
[2] = system: M. tuberculosis M-168; experiment: MIC against M. tuberculosis strains, agar dilution; assay type: cell-based, Mycobacterium tuberculosis; details: Mycobacterium tuberculosis, M168, S. No. 09 Mt-, Middle Brook 7H10 + OADC, 37° C., 14-21 days, read-out: MIC
[3] = system: H. influenzae 1381; experiment: MIC against Haemophilus strains; assay type: cell-based; details: Haemophilus influenzae; s. No. 7, H. influenzae 1381; read-out: MIC
[4] = system: M. tuberculosis PC 4782; experiment: MIC against M. tuberculosis strains, agar dilution; assay type: cell-based, Mycobacterium tuberculosis; details: Mycobacterium tuberculosis, PC4782, S. No. 21 Mt-, Middle Brook 7H10 + OADC, 37° C., 14-21 days, read-out: MIC
[5] = system: M. tuberculosis 35801; experiment: MIC against M. tuberculosis strains, agar dilution; assay type: cell-based, Mycobacterium tuberculosis; details: Mycobacterium tuberculosis, S. No. 02 Mt-, Middle Brook 7H10 + OADC, 37° C., 14-21 days, read-out: MIC
[6] = system: E. faecalis 5B (VRE); experiment: MIC, agar incorporation method; assay type: cell-based; details: Enterococcus faecalis; S. No. 19, E. faecalis 5B (VRE); read-out: MIC
[7] = system: M. tuberculosis ATCC; experiment: MIC against M. tuberculosis strains, agar dilution; assay type: cell-based, Mycobacterium tuberculosis; details: Mycobacterium tuberculosis, S. No. 01.Mt-, Middle Brook 7H10 + OADC, 37° C., 14-21 days, read-out: MIC
[8] = system: M. tuberculosis SGPGI; experiment: MIC against M. tuberculosis strains, agar dilution; assay type: cell-based, Mycobacterium tuberculosis; details: Mycobacterium tuberculosis, S. No. 05 Mt-, Middle Brook 7H10 + OADC, 37° C., 14-21 days, read-out: MIC
[9] = system: M. tuberculosis M-149; experiment: MIC against M. tuberculosis strains, agar dilution; assay type: cell-based, Mycobacterium tuberculosis; details: Mycobacterium tuberculosis, M149, S. No. 15 Mt-, Middle Brook 7H10 + OADC, 37° C., 14-21 days, read-out: MIC
[10] = system: H. influenzae 49766; experiment: MIC against Haemophilus strains; assay type: cell-based; details: Haemophilus influenzae; s. No. 6, H. influenzae 49766; read-out: MIC
[11] = system: H. influenzae 23; experiment: MIC against Haemophilus strains; assay type: cell-based; details: Haemophilus influenzae; s. No. 5, H. influenzae 23; read-out: MIC
[12] = system: M avium ATCC 700897; experiment: MIC against MAC strains, agar dilution; assay type: cell-based, Mycobacterium avium; details: Mycobacterium avium, ATCC700897; S. No. 05 Ma-6, M avium ATCC 700897; Middle Brook 7H10 + OADC, 37° C., 14-21 days; read-out: MIC
[13] = system: M avium ATCC 25291; experiment: MIC against MAC strains, agar dilution; assay type: cell-based, Mycobacterium avium; details: Mycobacterium avium, ATCC25291; S. No. 02 Ma-2, M avium ATCC 25291; Middle Brook 7H10 + OADC, 37° C., 14-21 days; read-out: MIC
[14] = system: M. avium intracellulare 18/98; experiment: MIC against MAC strains, agar dilution; assay type: cell-based; details: Mycobacterium avium; S. No. 16 Mai-9, M. avium intracellulare 18/98; Middle Brook 7H10 + OADC, 37° C., 14-21 days; read-out: MIC
[15] = system: Moraxella M6; experiment: MIC, agar incorporation method; assay type: cell-based; details: S. No. 60, Moraxella M6; read-out: MIC
[16] = system: M. tuberculosis 50; experiment: MIC against M. tuberculosis strains, agar dilution; assay type: cell-based, Mycobacterium tuberculosis; details: Mycobacterium tuberculosis, S. No. 12 Mt-, Middle Brook 7H10 + OADC, 37° C., 14-21 days, read-out: MIC
[17] = system: M. tuberculosis PC; experiment: MIC against M. tuberculosis strains, agar dilution; assay type: cell-based, Mycobacterium tuberculosis; details: Mycobacterium tuberculosis, S. No. 18 Mt-, Middle Brook 7H10 + OADC, 37° C., 14-21 days, read-out: MIC
[18] = system: M. avium intracellulare 4; experiment: MIC against MAC strains, agar dilution; assay type: cell-based; details: Mycobacterium avium; S. No. 11 Mai-2, M. avium intracellulare 4; Middle Brook 7H10 + OADC, 37° C., 14-21 days; read-out: MIC
[19] = system: M. avium ATCC 49601; experiment: MIC against MAC strains, agar dilution; assay type: cell-based, Mycobacterium avium; details: Mycobacterium avium, ATCC49601; S. No. 01 Ma-1, M. avium ATCC 49601; Middle Brook 7H10 + OADC, 37° C., 14-21 days; read-out: MIC
[20] = system: H. influenzae 451; experiment: MIC against Haemophilus strains; assay type: cell-based; details: Haemophilus influenzae; s. No. 8, H. influenzae 451; read-out: MIC
[21] = system: M. avium intracellulare 559/97; experiment: MIC against MAC strains, agar dilution; assay type: cell-based; details: Mycobacterium avium; S. No. 15 Mai-7, M. avium intracellulare 559/97; Middle Brook 7H10 + OADC, 37° C., 14-21 days; read-out: MIC
[22] = system: M. avium intracellulare 19/97; experiment: MIC against MAC strains, agar dilution; assay type: cell-based; details: Mycobacterium avium; S. No. 17 Mai-10, M. avium intracellulare 19/97; Middle Brook 7H10 + OADC, 37° C., 14-21 days; read-out: MIC
[23] = system: M. tuberculosis V-3093; experiment: MIC against M. tuberculosis strains, agar dilution; assay type: cell-based, Mycobacterium tuberculosis; details: Mycobacterium tuberculosis, V3093, S. No. 14 Mt-, Middle Brook 7H10 + OADC, 37° C., 14-21 days, read-out: MIC
[24] = system: M. tuberculosis M-66; experiment: MIC against M. tuberculosis strains, agar dilution; assay type: cell-based, Mycobacterium tuberculosis; details: Mycobacterium tuberculosis, M66, S. No. 08 Mt-, Middle Brook 7H10 + OADC, 37° C., 14-21 days, read-out: MIC
[25] = system: M. intracellulare ATCC 35761; experiment: MIC against MAC strains, agar dilution; assay type: cell-based; details: Mycobacterium intracellulare, ATCC35761; S. No. 07 Mi-2, M. intracellulare ATCC 35761; Middle Brook 7H10 + OADC, 37° C., 14-21 days; read-out: MIC

With CC(=O)NC[C@H]1CN(c2ccc(N3CCN(c4ccc([N+](=O)[O-])s4)CC3)c(F)c2)C(=O)O1 [Compound No. 1, (S)—N-[[3-[3-Fluoro-4-[4-(5-nitro-2-thienyl)-1-piperazinyl]phenyl]-2-oxo-5-oxazolidinyl]methyl]acetamide] the MIC [1] was 16 µg/mL, the MIC [2] was 0.25 µg/mL and the MIC [3] was 8 µg/mL (≈ 17.3 µM). For the same compound, the MIC [4] was 0.125 µg/mL, the MIC [5] was ≤ 0.125 µg/mL and the MIC [6] was 0.25 µg/mL (≈ 0.539 µM). The MIC [7] was ≤ 0.125 µg/mL, the MIC [8] was 0.25 µg/mL and the MIC [9] was 0.25 µg/mL. For the same compound, the MIC [10] was 8 µg/mL (≈ 17.3 µM), the MIC [11] was > 16 µg/mL and the MIC [12] was < 0.123 µg/mL. The MIC [13] was 0.25 µg/mL, the MIC [14] was 0.25 µg/mL and the MIC [15] was 0.25 µg/mL (≈ 0.539 µM). The MIC [16] was 2 µg/mL, the MIC [17] was 0.25 µg/mL and the MIC [18] was < 0.125 µg/mL. The MIC [19] was < 0.125 µg/mL, the MIC [20] was 16 µg/mL (≈ 34.5 µM) and the MIC [21] was 0.25 µg/mL. For the same compound, the MIC [22] was 0.25 µg/mL, the MIC [23] was ≤ 0.125 µg/mL and the MIC [24] was > 32 µg/mL. The MIC [25] was < 0.12 µg/mL.
